Measurements reported in patent publication US6313164A, “Dithiolin derivatives, their preparation and their therapeutic effect” (Sankyo Company, Limited, priority 1997, dated 2001).

Tests used:
newborn rats = settings: cited from earlier work
glutathione reductase = test: Measurement of glutathione reductase activity in cultured rat lens; format: cell-based, SD rats; settings: 72 hours, 37° C.
Method: The test animals were 6 to 8 week old male SD rats (supplier: Nippon SLC). The animals were sacrificed by suffocation by inhalation of carbon dioxide. Both eyeballs of each test animal were then excised. An incision was made in the sclera on the back of the eyeballs, and then the vitreous body and iris-ciliary body were removed, followed by removal of the lens.
Each lens obtained in this manner was cultured by immersing it in 3 ml of the culture solution described below in a 6-well tissue culture plate (FALCON). Culturing was performed for 72 hours in a CO2 incubator maintained at 37° C. and 100% humidity in the presence of 5% CO2 (in air).
Medium 199 (Gibco) containing penicillin (20 units/ml) and streptomycin (20 μg/ml) was used as the control culture solution.
The test culture solution contained the test compound added to the above-mentioned culture solution. The cultured lenses were placed in frozen storage until the time of the test.
After homogenising each frozen rat lens in 2 ml of distilled water, the resulting homogenate was separated by centrifugation (10,000 g, 20 minutes) after which the resulting supernatant was used as the enzyme sample.
400 μl of enzyme sample were added to 0.6 ml of phosphate buffer containing 1 mM oxidized glutathione (GSSG) and 100 μM NADPH. After the mixture had reacted at 25° C. for 6 minutes, the absorbance of the reaction mixture (at 340 nm: i.e. OD340nm) was measured. The difference (ΔOD340nm) between the OD340nm value before reaction and the OD340nm value after completion of the reaction was used as an indicator of glutathione reductase activity.

| SMILES | activity of glutathione reductase (newborn rats; lipoic acid in addition to BSO) | cataract formation (newborn rats; lipoic acid together with BSO) | total glutathione (oxidized and reduced glutathione) level (newborn rats; lipoic acid together with BSO) | ΔOD340 nm /min/g protein (indicator of glutathione reductase activity) (glutathione reductase; 10 μM in lens culture solution) | ΔOD340 nm /min/g protein (indicator of glutathione reductase activity) (glutathione reductase; 30 μM in lens culture solution) | ΔOD340 nm /min/g protein (indicator of glutathione reductase activity) (glutathione reductase; 100 μM in lens culture solution, p < 0.05) | ΔOD340 nm /min/g protein (indicator of glutathione reductase activity) (glutathione reductase; 300 μM in lens culture solution, p < 0.05) | ΔOD340 nm /min/g protein (indicator of glutathione reductase activity) (glutathione reductase; 1000 μM in lens culture solution, p < 0.05) |
| --- | --- | --- | --- | --- | --- | --- | --- | --- |
| O=C(O)CCCCC1CCSS1 (centres unmarked) [lipoic acid] | does not increase | suppressed | decrease is prevented |  |  |  |  |  |
| CS(=O)(=O)NC(=O)CCCCC1CCSS1 (centres unmarked) [Example 2, N-[5-(1,2-Dithiolan-3-yl)pentanoyl]methanesulfonamide] |  |  |  | 3.24 ± 0.10 ΔOD340 nm /min/g protein | 3.20 ± 0.09 ΔOD340 nm /min/g protein | 3.59 ± 0.05 ΔOD340 nm /min/g protein | 3.70 ± 0.08 ΔOD340 nm /min/g protein | 4.16 ± 0.18 ΔOD340 nm /min/g protein |
